Results from ChEMBL document CHEMBL1139716, “Naphtho[2,3-b][1,4]-thiazine-5,10-diones and 3-substituted-1,4-dioxo-1,4-dihydronaphthalen-2-yl-thioalkanoate derivatives: synthesis and biological evaluation as potential antibacterial and antifungal agents” (Bioorg Med Chem Lett, 2006).
Values after ≈ are worked out from the molar mass of the structure shown.

Key:
Staphylococcus aureus = assay: Antibacterial activity against Staphylococcus aureus by broth microdilution technique; format: functional, organism-based; conditions: Staphylococcus aureus; for IC50: read-out: IC50
Enterococcus faecalis = assay: Antibacterial activity against Streptococcus faecalis by broth microdilution technique; format: functional, organism-based; conditions: Enterococcus faecalis; for IC50: read-out: IC50
Klebsiella pneumoniae = assay: Antibacterial activity against Klebsiella pneumoniae by broth microdilution technique; format: functional, organism-based; conditions: Klebsiella pneumoniae; for IC50: read-out: IC50
Escherichia coli = assay: Antibacterial activity against Escherichia coli by broth microdilution technique; format: functional, organism-based; conditions: Escherichia coli; for IC50: read-out: IC50
Pseudomonas aeruginosa = assay: Antibacterial activity against Pseudomonas aeruginosa by broth microdilution technique; format: functional, organism-based; conditions: Pseudomonas aeruginosa; for IC50: read-out: IC50
Candida albicans = assay: Antifungal activity against Candida albicans by broth microdilution technique; format: functional, organism-based
Candida parapsilosis = assay: Antifungal activity against Candida parapsilosis ATCC 22019 by broth microdilution technique; format: functional, organism-based; conditions: Lodderomyces parapsilosis
Cryptococcus neoformans = assay: Antifungal activity against Cryptococcus neoformans by broth microdilution technique; format: functional, organism-based
Aspergillus fumigatus = assay: Antifungal activity against Aspergillus fumigatus by broth microdilution technique; format: functional, organism-based
Sporothrix schenckii = assay: Antifungal activity against Sporothrix schenckii by broth microdilution technique; format: functional, organism-based
Trichophyton benhamiae = assay: Antifungal activity against Trichophyton mentagrophytes by broth microdilution technique; format: functional, organism-based, Arthroderma benhamiae

Structure (SMILES) | MIC (Staphylococcus aureus) | IC50 (Staphylococcus aureus) | MIC (Enterococcus faecalis) | IC50 (Enterococcus faecalis) | MIC (Klebsiella pneumoniae) | IC50 (Klebsiella pneumoniae) | IC50 (Escherichia coli) | MIC (Pseudomonas aeruginosa) | IC50 (Pseudomonas aeruginosa) | IC50 (Candida albicans) | MIC (Candida albicans) | IC50 (Candida parapsilosis) | MIC (Candida parapsilosis) | IC50 (Cryptococcus neoformans) | MIC (Cryptococcus neoformans) | IC50 (Aspergillus fumigatus) | MIC (Aspergillus fumigatus) | IC50 (Sporothrix schenckii) | MIC (Sporothrix schenckii) | IC50 (Trichophyton benhamiae) | other results
CCOC(=O)C(C)SC1=C(Cl)C(=O)c2ccccc2C1=O (stereo not drawn) | 12.5 µg/mL (≈ 38.5 µM) | 7.95 µg/mL (≈ 24.5 µM) | 12.5 µg/mL (≈ 38.5 µM) | 9.52 µg/mL (≈ 29.3 µM) | 50 µg/mL (≈ 154 µM) | 28.3 µg/mL (≈ 87.3 µM) | 6.34 µg/mL (≈ 19.5 µM) | 50 µg/mL (≈ 154 µM) | 48.3 µg/mL (≈ 149 µM) | > 50 µg/mL | > 50 µg/mL | > 50 µg/mL | > 50 µg/mL | 11.5 µg/mL (≈ 35.3 µM) | 12.5 µg/mL (≈ 38.5 µM) | > 50 µg/mL | > 50 µg/mL | 22.7 µg/mL (≈ 69.8 µM) | 25 µg/mL (≈ 77 µM) | > 50 µg/mL | MIC (Escherichia coli): 12.5 µg/mL (≈ 38.5 µM); MIC (Trichophyton benhamiae): > 50 µg/mL
CCOC(=O)CSC1=C(NCc2ccccc2)C(=O)c2ccccc2C1=O | 12.5 µg/mL (≈ 32.8 µM) | 11.6 µg/mL (≈ 30.4 µM) | > 50 µg/mL | > 50 µg/mL | 25 µg/mL (≈ 65.5 µM) | 22.3 µg/mL (≈ 58.6 µM) | 9.2 µg/mL (≈ 24.1 µM) | > 50 µg/mL | > 50 µg/mL | > 50 µg/mL | > 50 µg/mL | > 50 µg/mL | > 50 µg/mL | > 50 µg/mL | > 50 µg/mL | > 50 µg/mL | > 50 µg/mL | > 50 µg/mL | > 50 µg/mL | 4.5 µg/mL (≈ 11.8 µM) | MIC (Escherichia coli): 12.5 µg/mL (≈ 32.8 µM); MIC (Trichophyton benhamiae): 6.25 µg/mL (≈ 16.4 µM)
CC1(C)S[C@@H]2[C@H](NC(=O)[C@H](N)c3ccccc3)C(=O)N2[C@H]1C(=O)O [AMPICILLIN] | 0.9 µg/mL (≈ 2.58 µM) | 0.74 µg/mL (≈ 2.12 µM) | 0.02 µg/mL (≈ 0.0572 µM) | 0.01 µg/mL (≈ 0.0286 µM) | 0.09 µg/mL (≈ 0.258 µM) | 0.08 µg/mL (≈ 0.229 µM) | 0.01 µg/mL (≈ 0.0286 µM) | 50 µg/mL (≈ 143 µM) | 48.7 µg/mL (≈ 139 µM) |  |  |  |  |  |  |  |  |  |  |  | 
C[C@@H]1[C@H](O)[C@@H](C)/C=C/C=C/C=C/C=C/C=C/C=C/C=C/[C@H](O[C@@H]2O[C@H](C)[C@@H](O)[C@H](N)[C@@H]2O)C[C@@H]2O[C@](O)(C[C@@H](O)C[C@@H](O)[C@H](O)CC[C@@H](O)C[C@@H](O)CC(=O)O[C@H]1C)C[C@H](O)[C@H]2C(=O)O [AMPHOTERICIN B] |  |  |  |  |  |  |  |  |  | 0.09 µg/mL (≈ 0.0974 µM) | 0.12 µg/mL (≈ 0.13 µM) | 0.11 µg/mL (≈ 0.119 µM) | 0.12 µg/mL (≈ 0.13 µM) | 0.04 µg/mL (≈ 0.0433 µM) | 0.06 µg/mL (≈ 0.0649 µM) | 0.38 µg/mL (≈ 0.411 µM) | 0.5 µg/mL (≈ 0.541 µM) | 0.08 µg/mL (≈ 0.0866 µM) | 0.12 µg/mL (≈ 0.13 µM) | 0.09 µg/mL (≈ 0.0974 µM) | MIC (Trichophyton benhamiae): 0.12 µg/mL (≈ 0.13 µM)
CCOC(=O)C(C)SC1=C(NCCO)C(=O)c2ccccc2C1=O (stereo not drawn) | 6.25 µg/mL (≈ 17.9 µM) | 4.82 µg/mL (≈ 13.8 µM) | 6.25 µg/mL (≈ 17.9 µM) | 5.42 µg/mL (≈ 15.5 µM) | 12.5 µg/mL (≈ 35.8 µM) | 11.6 µg/mL (≈ 33.1 µM) | 2.24 µg/mL (≈ 6.41 µM) | 25 µg/mL (≈ 71.5 µM) | 24.5 µg/mL (≈ 70.2 µM) | 23.3 µg/mL (≈ 66.6 µM) | 25 µg/mL (≈ 71.5 µM) | 22.5 µg/mL (≈ 64.5 µM) | 25 µg/mL (≈ 71.5 µM) | 6.92 µg/mL (≈ 19.8 µM) | 12.5 µg/mL (≈ 35.8 µM) | 23.9 µg/mL (≈ 68.5 µM) | 25 µg/mL (≈ 71.5 µM) | 21.9 µg/mL (≈ 62.8 µM) | 25 µg/mL (≈ 71.5 µM) | > 50 µg/mL | MIC (Escherichia coli): 3.12 µg/mL (≈ 8.93 µM); MIC (Trichophyton benhamiae): > 50 µg/mL

More lines, main results first:

MIC (Staphylococcus aureus) | IC50 (Staphylococcus aureus) | MIC (Enterococcus faecalis) | IC50 (Enterococcus faecalis) | MIC (Klebsiella pneumoniae) | IC50 (Klebsiella pneumoniae) | IC50 (Escherichia coli) | MIC (Pseudomonas aeruginosa) | IC50 (Pseudomonas aeruginosa) | IC50 (Candida albicans) | MIC (Candida albicans) | IC50 (Candida parapsilosis) | MIC (Candida parapsilosis) | IC50 (Cryptococcus neoformans) | MIC (Cryptococcus neoformans) | IC50 (Aspergillus fumigatus) | MIC (Aspergillus fumigatus) | IC50 (Sporothrix schenckii) | MIC (Sporothrix schenckii) | IC50 (Trichophyton benhamiae) | Structure (SMILES) | other results
3.12 µg/mL (≈ 11.4 µM) | 1.92 µg/mL (≈ 7.02 µM) | 3.12 µg/mL (≈ 11.4 µM) | 2.58 µg/mL (≈ 9.44 µM) | 3.12 µg/mL (≈ 11.4 µM) | 1.98 µg/mL (≈ 7.24 µM) | 0.96 µg/mL (≈ 3.51 µM) | 50 µg/mL (≈ 183 µM) | 49.3 µg/mL (≈ 180 µM) | 5.3 µg/mL (≈ 19.4 µM) | 6.25 µg/mL (≈ 22.9 µM) | 10.4 µg/mL (≈ 38 µM) | 12.5 µg/mL (≈ 45.7 µM) | 1.54 µg/mL (≈ 5.63 µM) | 3.12 µg/mL (≈ 11.4 µM) | 3.98 µg/mL (≈ 14.6 µM) | 6.25 µg/mL (≈ 22.9 µM) | 2.84 µg/mL (≈ 10.4 µM) | 3.12 µg/mL (≈ 11.4 µM) | 0.9 µg/mL (≈ 3.29 µM) | Cc1sc2c(=O)c3ccccc3c(=O)c=2n(C)c1O | MIC (Escherichia coli): 1.56 µg/mL (≈ 5.71 µM); MIC (Trichophyton benhamiae): 1.56 µg/mL (≈ 5.71 µM)
6.25 µg/mL (≈ 17.3 µM) | 3.98 µg/mL (≈ 11 µM) | 6.25 µg/mL (≈ 17.3 µM) | 5.62 µg/mL (≈ 15.5 µM) | 6.25 µg/mL (≈ 17.3 µM) | 4.82 µg/mL (≈ 13.3 µM) | 4.38 µg/mL (≈ 12.1 µM) | 6.25 µg/mL (≈ 17.3 µM) | 5.32 µg/mL (≈ 14.7 µM) | 38.3 µg/mL (≈ 106 µM) | 50 µg/mL (≈ 138 µM) | 22.2 µg/mL (≈ 61.4 µM) | 25 µg/mL (≈ 69.2 µM) | 10.3 µg/mL (≈ 28.5 µM) | 12.5 µg/mL (≈ 34.6 µM) | 21.8 µg/mL (≈ 60.4 µM) | 25 µg/mL (≈ 69.2 µM) | 10.9 µg/mL (≈ 30.2 µM) | 12.5 µg/mL (≈ 34.6 µM) | 2.8 µg/mL (≈ 7.75 µM) | CCOC(=O)C(C)SC1=C(NC(C)(C)C)C(=O)c2ccccc2C1=O (stereo not drawn) | MIC (Escherichia coli): 6.25 µg/mL (≈ 17.3 µM); MIC (Trichophyton benhamiae): 3.12 µg/mL (≈ 8.63 µM)
12.5 µg/mL (≈ 40.2 µM) | 6.98 µg/mL (≈ 22.5 µM) | 12.5 µg/mL (≈ 40.2 µM) | 9.24 µg/mL (≈ 29.7 µM) | 50 µg/mL (≈ 161 µM) | 33.2 µg/mL (≈ 107 µM) | 8.56 µg/mL (≈ 27.5 µM) | 50 µg/mL (≈ 161 µM) | 44.4 µg/mL (≈ 143 µM) | > 50 µg/mL | > 50 µg/mL | > 50 µg/mL | > 50 µg/mL | 10.9 µg/mL (≈ 35.2 µM) | 12.5 µg/mL (≈ 40.2 µM) | > 50 µg/mL | > 50 µg/mL | 18.7 µg/mL (≈ 60.3 µM) | 25 µg/mL (≈ 80.4 µM) | > 50 µg/mL | CCOC(=O)CSC1=C(Cl)C(=O)c2ccccc2C1=O | MIC (Escherichia coli): 12.5 µg/mL (≈ 40.2 µM); MIC (Trichophyton benhamiae): > 50 µg/mL
